# From patent US9127079B2, “Inhibitors of phosphatase and tensin homolog (PTEN) conjugates” (THE UNIVERSITY OF BRITISH COLUMBIA, priority 2009, dated 2015)
# Legend:
# Format in all cases: in vivo, rat
# [1] = Cortical glucose metabolism by FDG-PET after cerebral ischemia; conditions: one week after treatment
# Protocol: (§1) Adult male Sprague-Dawley rats (weight 200 g) were used in this study. All surgical procedures were performed using sterile/aseptic techniques in accordance with Institutional guidelines. Rats were anesthetized with chloral hydrate (0.4 g/kg IP) and subjected to cerebral ischemia. Ligation of the right middle cerebral artery (MCA) and bilateral common carotids arteries (CCAs) was performed by methods described previously (Shyu et al. 2005). The CCAs were clamped with non-traumatic arterial clips. The right MCA was ligated with a 10-0 nylone suture. After 90 min of ischemia, the suture on the MCA and the arterial clips on the CCAs were removed to allow reperfusion. Core body temperature was monitored with a thermistor probe (Hewlett-Packard™ Model 21090A probe, Hewlett-Packard Company™, Andover, Mass.), and maintained at 37° C. with a heating pad during anesthesia. After recovery from anesthesia, rat body temperature was maintained at 37° C. with a heat lamp. Experimental rats were subdivided into five groups receiving different types of interference peptides, all fused to a TAT protein transduction domain (PTEN-K13 (SEQ ID NO: 2) 2 hrs or 6 hrs, PTEN-K13R (SEQ ID NO: 3), PTEN-K289 (SEQ ID NO: 4), and vehicle control) via femoral vein with dosage of 8.4 mg/kg at 2 or 6 hours after MCA ligation for three consecutive days. […]
# [2] = Locomotor activity after cerebral ischemia; conditions: vs other groups
# Protocol: as §1, with “anesthesia.” for “anesthesia. After recovery from anesthesia, rat body temperature was maintained at 37° C. with a heat lamp. Experimental rats were subdivided into five groups receiving different types of interference peptides, all fused to a TAT protein transduction domain (PTEN-K13 (SEQ ID NO: 2) 2 hrs or 6 hrs, PTEN-K13R (SEQ ID NO: 3), PTEN-K289 (SEQ ID NO: 4), and vehicle control) via femoral vein with dosage of 8.4 mg/kg at 2 or 6 hours after MCA ligation for three consecutive days.”
# (§2) Behavioral assessments were measured on day 28 after stroke. […] The baseline-test scores were recorded in order to normalize those taken after cerebral ischemia. The elevated body swing test (EBST) was used to assess body asymmetry after MCA ligation and evaluated quantitatively as previously described (Shyu et al. 2004). […] The frequency of initial head swing contra-lateral to the ischemic side was counted in twenty continuous tests and was normalized, as follows: % recovery=[1−(lateral swings in twenty tests−10)/10×100%. […]
# [3] = Forelimb grip strength after cerebral ischemia; conditions: before vs 28 days after ischemia
# Protocol: as §1, with “anesthesia.” for “anesthesia. After recovery from anesthesia, rat body temperature was maintained at 37° C. with a heat lamp. Experimental rats were subdivided into five groups receiving different types of interference peptides, all fused to a TAT protein transduction domain (PTEN-K13 (SEQ ID NO: 2) 2 hrs or 6 hrs, PTEN-K13R (SEQ ID NO: 3), PTEN-K289 (SEQ ID NO: 4), and vehicle control) via femoral vein with dosage of 8.4 mg/kg at 2 or 6 hours after MCA ligation for three consecutive days.”
# as §2
substance,measurement,setting,value
KEIVSRNKRRYQED-YGRKKRRQRRR (KEIVSRNKRRYQEDYGRKKRRQRRR; PTEN K13 interference peptide conjugated to TAT protein transduction domain) [Peptide-K13],FDG uptake over the right cortex (microPET),[1]; i.v. 8.4 mg/kg given 2 hours after ischemia onset,striking increase
same,FDG uptake over the right cortex (microPET),[1]; i.v. 8.4 mg/kg given 6 hours after ischemia onset,striking increase
same,"locomotor activities (vertical activity, vertical time, number of vertical movements)",[2]; given 2 hours after ischemia,significantly better
same,"locomotor activities (vertical activity, vertical time, number of vertical movements)",[2]; given 6 hours after ischemia,significantly better
same,forelimb grip strength ratio,[3]; given 2 hours after ischemia,much better strength ratio
same,forelimb grip strength ratio,[3]; given 6 hours after ischemia,much better strength ratio
